Measurements from ChEMBL document CHEMBL2311264, “Synthesis and anticancer activity of heteroaromatic linked 4β-amido podophyllotoxins as apoptotic inducing agents” (Bioorg Med Chem Lett, 2013).

Legend:
B16 = assay: Cytotoxicity against mouse B16 cells […] by MTT assay; format: functional, cell-based
HeLa = assay: Cytotoxicity against human HeLa cells […] by MTT assay; format: functional, cell-based
ACHN = assay: Cytotoxicity against human ACHN cells […] by MTT assay; format: functional, cell-based
A549 [1] = assay: Cytotoxicity against human A549 cells […] by MTT assay; format: functional, cell-based
HT-29 = assay: Cytotoxicity against human HT-29 cells after 72 hrs by MTT assay; format: functional, cell-based; settings: HT-29, 72 h
A549 [2] = assay: Induction of cell cycle arrest in human A549 cells assessed as sub G1 phase cells at 1 uM by FACS analysis (reference value: 1.08%); format: functional
A549 [3] = assay: Induction of cell cycle arrest in human A549 cells assessed as S phase cells at 1 uM by FACS analysis (reference value: 3.69%); format: functional
A549 [4] = assay: Induction of cell cycle arrest in human A549 cells assessed as G2/M phase cells at 1 uM by FACS analysis (reference value: 9.89%); format: functional
A549 [5] = assay: Induction of cell cycle arrest in human A549 cells assessed as G1 phase cells at 1 uM by FACS analysis (reference value: 85.33%); format: functional

Row | Structure (SMILES) | IC50 (B16) [µM] | IC50 (HeLa) [µM] | IC50 (ACHN) [µM] | IC50 (A549 [1]) [µM] | IC50 (HT-29) [µM] | Activity (A549 [2]) [%] | Activity (A549 [3]) [%] | Activity (A549 [4]) [%] | Activity (A549 [5]) [%]
1 | COc1ccc(-c2cc(C(=O)N[C@@H]3c4cc5c(cc4[C@@H](c4cc(OC)c(OC)c(OC)c4)[C@H]4C(=O)OC[C@@H]43)OCO5)n[nH]2)cc1 | 9.5 | 9.4 | 11.6 | 5.3 | 8.4 | – | – | – | –
2 | COc1cc(-c2cc(C(=O)N[C@@H]3c4cc5c(cc4[C@@H](c4cc(OC)c(OC)c(OC)c4)[C@H]4C(=O)OC[C@@H]43)OCO5)n[nH]2)cc(OC)c1OC | 18.3 | 11.5 | 27.1 | 15.2 | 16.8 | – | – | – | –
3 | COc1ccc(-c2cc(C(=O)N[C@@H]3c4cc5c(cc4[C@@H](c4cc(OC)c(OC)c(OC)c4)[C@H]4C(=O)OC[C@@H]43)OCO5)nc3cc(-c4ccccc4)nn23)cc1OC | 10.7 | 14.4 | 19.3 | 17.3 | 14.5 | – | – | – | –
4 | COc1ccc(-c2cc(C(=O)N[C@@H]3c4cc5c(cc4[C@@H](c4cc(OC)c(OC)c(OC)c4)[C@H]4C(=O)OC[C@@H]43)OCO5)no2)cc1 | 22.5 | 11.2 | 30.3 | 38.1 | 32.1 | – | – | – | –
5 | COc1ccc(-c2cc(C(=O)N[C@@H]3c4cc5c(cc4[C@@H](c4cc(OC)c(OC)c(OC)c4)[C@H]4C(=O)OC[C@@H]43)OCO5)no2)cc1OC | 12.7 | 13.3 | 23.1 | 23.1 | 38.4 | – | – | – | –
6 | COc1cc([C@@H]2c3cc4c(cc3[C@@H](NC(=O)c3cc(-c5ccc([N+](=O)[O-])cc5)[nH]n3)[C@H]3COC(=O)[C@H]23)OCO4)cc(OC)c1OC | – | 14.6 | 23.5 | 19.4 | 20.6 | – | – | – | –
7 | COc1cc([C@@H]2c3cc4c(cc3[C@@H](NC(=O)c3cc(-c5ccc(C)cc5)[nH]n3)[C@H]3COC(=O)[C@H]23)OCO4)cc(OC)c1OC | 16.6 | 16.9 | 25.8 | 22.3 | 26.5 | – | – | – | –
8 | COc1cc([C@@H]2c3cc4c(cc3[C@@H](NC(=O)c3cc(-c5ccc(F)c(F)c5)[nH]n3)[C@H]3COC(=O)[C@H]23)OCO4)cc(OC)c1OC | 25.6 | 14.9 | 32.5 | 15.8 | 10.8 | – | – | – | –
9 | COc1cc([C@@H]2c3cc4c(cc3[C@@H](NC(=O)c3cc(-c5ccc(Cl)c(Cl)c5)on3)[C@H]3COC(=O)[C@H]23)OCO4)cc(OC)c1OC | 22.7 | 12.6 | 16.8 | 31.1 | 11.2 | – | – | – | –
10 | COc1cc([C@@H]2c3cc4c(cc3[C@@H](NC(=O)c3cc(-c5ccc([N+](=O)[O-])cc5)n5nc(-c6ccccc6)cc5n3)[C@H]3COC(=O)[C@H]23)OCO4)cc(OC)c1OC | 18.4 | 12.1 | 17.7 | 10.6 | 10.9 | – | – | – | –
11 | COc1ccc(-c2cc(C(=O)N[C@@H]3c4cc5c(cc4[C@@H](c4cc(OC)c(OC)c(OC)c4)[C@H]4C(=O)OC[C@@H]43)OCO5)n[nH]2)cc1OC | 45.3 | 25.1 | 31.6 | 39.5 | 36.3 | – | – | – | –
12 | COc1cc([C@@H]2c3cc4c(cc3[C@@H](NC(=O)c3cc(-c5ccc(F)cc5)on3)[C@H]3COC(=O)[C@H]23)OCO4)cc(OC)c1OC | 23.5 | 16.6 | 15.6 | 20.6 | 19.9 | – | – | – | –
13 | COc1cc([C@@H]2c3cc4c(cc3[C@@H](NC(=O)c3cc(-c5ccccc5)on3)[C@H]3COC(=O)[C@H]23)OCO4)cc(OC)c1OC | 16.3 | 5.9 | 17.5 | 13.6 | 19.5 | – | – | – | –
14 | COc1cc([C@@H]2c3cc4c(cc3[C@@H](NC(=O)c3cc(-c5ccc(F)cc5)[nH]n3)[C@H]3COC(=O)[C@H]23)OCO4)cc(OC)c1OC | 26.1 | 15.2 | 18.3 | 21.2 | 26.3 | – | – | – | –
15 | COc1cc(-c2cc(C(=O)N[C@@H]3c4cc5c(cc4[C@@H](c4cc(OC)c(OC)c(OC)c4)[C@H]4C(=O)OC[C@@H]43)OCO5)no2)cc(OC)c1OC | 23.4 | 18.4 | 34.2 | 19.8 | 25.1 | – | – | – | –
16 | COc1cc(-c2cc(C(=O)N[C@@H]3c4cc5c(cc4[C@@H](c4cc(OC)c(OC)c(OC)c4)[C@H]4C(=O)OC[C@@H]43)OCO5)nc3cc(-c4ccccc4)nn23)cc(OC)c1OC | 12.7 | 13.7 | 13.8 | 9.5 | 9.2 | – | – | – | –
17 | COc1cc([C@@H]2c3cc4c(cc3[C@@H](NC(=O)c3cc(-c5ccc(C)cc5)on3)[C@H]3COC(=O)[C@H]23)OCO4)cc(OC)c1OC | 20.3 | 5.26 | 28.5 | 24.7 | 27.9 | – | – | – | –
18 | COc1cc([C@@H]2c3cc4c(cc3[C@@H](NC(=O)c3cc(-c5ccc([N+](=O)[O-])cc5)on3)[C@H]3COC(=O)[C@H]23)OCO4)cc(OC)c1OC | 16.8 | 7.5 | 26.4 | 17.9 | 22.6 | – | – | – | –
19 | COc1cc([C@@H]2c3cc4c(cc3[C@@H](NC(=O)c3cc(-c5ccc(F)c(F)c5)on3)[C@H]3COC(=O)[C@H]23)OCO4)cc(OC)c1OC | 27.5 | 21.2 | 16.4 | 12.7 | 14.1 | – | – | – | –
20 | COc1cc([C@@H]2c3cc4c(cc3[C@@H](NC(=O)c3cc(-c5ccccc5)[nH]n3)[C@H]3COC(=O)[C@H]23)OCO4)cc(OC)c1OC | 16.3 | 7.5 | 30.2 | 28.9 | 26.5 | – | – | – | –
21 | COc1ccc(-c2cc(C(=O)N[C@@H]3c4cc5c(cc4[C@@H](c4cc(OC)c(OC)c(OC)c4)[C@H]4C(=O)OC[C@@H]43)OCO5)nc3cc(-c4ccccc4)nn23)cc1 | 18.3 | 8.9 | 17.3 | 11.2 | 5.7 | – | – | – | –
22 | COc1cc([C@@H]2c3cc4c(cc3[C@H](O)[C@H]3COC(=O)[C@H]23)OCO4)cc(OC)c1OC [PODOFILOX] | 2.5 | 2.8 | 2.3 | 3.6 | 1.02 | 1.83 | 3.67 | 16.24 | 78.31
